Measured values reported in patent US8916579B2, “5-fluoropyrimidinone derivatives” (Dow AgroSciences, LLC., priority 2009, dated 2014).
Like-named read-outs stand apart in the source and are kept apart here.

How the values were obtained:
[1] = system: Mycosphaerella graminicola; anamorph: Septoria tritici; Bayer code SEPTTR; experiment: Fungicidal activity: leaf blotch of wheat, greenhouse wheat plants (variety Yuma), percent disease control; type: in vivo; details: Zymoseptoria tritici
Protocol: Evaluation of Fungicidal Activity: Leaf Blotch of Wheat (Mycosphaerella graminicola; anamorph: Septoria tritici; Bayer code SEPTTR)
Wheat plants (variety Yuma) were grown from seed in a greenhouse in 50% mineral soil/50% soil-less Metro mix until the first leaf was fully emerged, with 7-10 seedlings per pot. These plants were inoculated with an aqueous spore suspension of Septoria tritici either prior to or after fungicide treatments. After inoculation the plants were kept in 100% relative humidity (one day in a dark dew chamber followed by two to three days in a lighted dew chamber) to permit spores to germinate and infect the leaf. The plants were then transferred to a greenhouse for disease to develop.
The effectiveness of the test compounds in controlling disease was determined by assessing the severity of disease on treated plants, then converting the severity to percent control based on the level of disease on untreated, inoculated plants. • In each case of Table II the rating scale is as follows: […]

[2] = 24 h, One-Day Protectant (1DP), 100 ppm, wheat plants, read-out: SEPTTR 100 PPM 1DP (% Disease Control rating)
[3] = 72 h, Three-Day Curative (3DC), 100 ppm, wheat plants, read-out: SEPTTR 100 PPM 3DC (% Disease Control rating)
[4] = 24 h, read-out: SEPTTR 100 PPM 1DP (% Disease Control rating)
[5] = 72 h, read-out: SEPTTR 100 PPM 3DC (% Disease Control rating)

Row | melting point | Structure (SMILES) | pest or weed control at 100 ppm [1, 2] [%] | pest or weed control at 100 ppm [1, 3] [%] | pest or weed control at 100 ppm [1, 4] [%] | pest or weed control at 100 ppm [1, 5] [%]
1 | 210 to 214 °C | CCCC(=O)OCn1cc(F)c(N)nc1=O [Compound 21] | 76 to 100 | 76 to 100 | – | –
2 | 259 to 264 °C | CC(C)(C)C(=O)OCn1cc(F)c(N)nc1=O [Compound 22] | 76 to 100 | 76 to 100 | – | –
3 | 162 to 166 °C | CCOC(=O)OC(C)n1cc(F)c(N)nc1=O (stereo not drawn) [Compound 23] | 76 to 100 | 76 to 100 | – | –
4 | 197 to 200 °C | Nc1nc(=O)n(CCCCn2cncn2)cc1F [Compound 27, 4-amino-5-fluoro-1-(4-[1,2,4]triazol-1-yl-butyl)-1H-pyrimidin-2-one] | 0 to 25 | 0 to 25 | – | –
5 | 195 °C (dec.) | Cn1cc(F)c(N)nc1=O [Compound 28, 4-amino-5-fluoro-1-methylpyrimidin-2(1H)-one] | 51 to 75 | 76 to 100 | – | –
6 | 279 °C (dec.) | CCn1cc(F)c(N)nc1=O [Compound 29] | 51 to 75 | 76 to 100 | – | –
7 | 168 to 189 °C | COc1ccc(CCn2cc(F)c(N)nc2=O)cc1 [Compound 30] | 0 to 25 | 76 to 100 | – | –
8 | 252 to 254 °C | Nc1nc(=O)n(CCc2ccc(Cl)cc2)cc1F [Compound 31] | 0 to 25 | 76 to 100 | – | –
9 | 255 °C (dec.) | Nc1nc(=O)n(CC2CCOC2)cc1F (stereo not drawn) [Compound 32] | 76 to 100 | 76 to 100 | – | –
10 | 250 to 254 °C | Nc1nc(=O)n(Cc2ccc(F)cc2F)cc1F [Compound 33] | 0 to 25 | 51 to 75 | – | –
11 | 157 to 160 °C | CCn1cc(F)c(/N=C/N(C)C)nc1=O [Compound 34, (E)-N′-(1-ethyl-5-fluoro-2-oxo-1,2-dihydropyrimidin-4-yl)-N,N-dimethylformimidamide] | 76 to 100 | 76 to 100 | – | –
12 | 196 to 200 °C | CN(C)/C=N/c1nc(=O)n(Cc2ccc(F)c(F)c2)cc1F [Compound 35] | 51 to 75 | 51 to 75 | – | –
13 | 196 to 199 °C | CCOC(=O)Cn1cc(F)c(/N=C/N(C)C)nc1=O [Compound 36] | 51 to 75 | 26 to 50 | – | –
14 | 244.8 to 245.6 °C | COc1ccc(-n2cc(F)c(N)nc2=O)cc1OC [Compound 40] | 0 to 25 | 0 to 25 | – | –
15 | 213.5 to 214.4 °C | C=Cn1cc(F)c(N)nc1=O [Compound 41] | 76 to 100 | 76 to 100 | – | –
16 | 225 to 227 °C | Cc1ccc(-n2cc(F)c(N)nc2=O)cc1 [Compound 43] | 26 to 50 | 0 to 25 | – | –
17 | 175 to 178 °C | N#Cc1cccc(-n2cc(F)c(N)nc2=O)c1 [Compound 46] | 0 to 25 | 0 to 25 | – | –

Row | Structure (SMILES) | melting point | pest or weed control at 100 ppm [1, 2] [%] | pest or weed control at 100 ppm [1, 3] [%] | pest or weed control at 100 ppm [1, 4] [%] | pest or weed control at 100 ppm [1, 5] [%]
18 | CSCn1cc(F)c(/N=C/N(C)C)nc1=O [Compound 24, N′-(5-fluoro-1-methylsulfanylmethyl-2-oxo-1,2-dihydropyrimidin-4-yl)-N,N-dimethylformamidine] | 132 to 136 °C | – | – | 76 to 100 | 76 to 100
19 | Nc1nc(=O)n(CCCCI)cc1F [Compound 26, 4-amino-5-fluoro-1-(4-iodobutyl)-1H-pyrimidin-2-one] | 181 to 184 °C | – | – | 0 to 25 | 26 to 50
20 | Nc1nc(=O)n(-c2ccsc2)cc1F [Compound 39, 4-amino-5-fluoro-1-(thiophen-3-yl)pyrimidin-2(1H)-one] | 228 to 229 °C | – | – | 0 to 25 | 76 to 100
